Experimental data: publication PMC9416111, “Synthesis and Biological Activity of Unsymmetrical Monoterpenylhetaryl Disulfides” (Molecules, 2022)
≈ marks a conversion by molar mass, not a printed value.

How the values were obtained:
[1] = tested on: S. aureus ATCC 29213 (MSSA); experiment: Antibacterial MIC, broth microdilution (EUCAST); type: cell-based, Staphylococcus aureus; details: for MIC: Staphylococcus aureus
Protocol: (§1) Minimum inhibitory concentrations (MICs) of compounds was determined by the broth microdilution assay in 96-well plates (Eppendorf, Hamburg, Germany) according to the EUCAST rules for antimicrobial susceptibility testing in full Mueller-Hinton broth (MH). The concentrations of compounds to be tested ranged from 1 to 2048 µg/mL. The MIC was determined as the lowest concentration of an antibiotic for which no visible bacterial growth could be observed after 24 h of incubation.

[2] = tested on: S. aureus MRSA clinical isolate; experiment: Antibacterial MIC, broth microdilution (EUCAST); type: cell-based, Staphylococcus aureus; details: for MIC: Staphylococcus aureus, MRSA, 24 h, Mueller-Hinton broth
Protocol: as §1

P. aeruginosa ATCC 27853 = experiment: Antibacterial MIC, broth microdilution (EUCAST); type: cell-based, Pseudomonas aeruginosa; details: for MIC: Pseudomonas aeruginosa, ATCC27853, 24 h, Mueller-Hinton broth
Protocol: as §1

[3] = tested on: influenza virus A/Puerto Rico/8/34 (H1N1); experiment: Antiviral cell protection assay in MDCK cells; type: cell-based; details: H1N1, MDCK, 72 h
in vitro = details: dog
[4] = tested on: Candida albicans 703 clinical isolate; experiment: Antifungal MIC, broth microdilution (CLSI M27-A3); details: for MIC: Candida albicans, 24 h, read-out: MIC C. albicans 703 Clinical Isolate
[5] = tested on: red blood cells from laboratory mice; experiment: Membrane-protective activity: H2O2-induced hemolysis of erythrocytes; type: cell-based; details: 1 μM, 1–5 h
Protocol: The membrane-protective properties of the compounds were evaluated in the model of oxidative hemolysis of erythrocytes at a concentration of 1 μM in order to avoid the effect of hemolytic activity.
(§2) To evaluate the erythrotoxicity, antioxidant and membrane-protective activity of the compounds, we used 0.5% (v/v) suspension of red blood cells from laboratory mice in phosphate-buffered saline (PBS, pH 7.4). The test substances were previously dissolved in ethanol. Erythrotoxicity (hemolytic activity) was evaluated by the degree of hemolysis of red blood cells 1–5 h after the introduction of solutions of the compounds. Membrane-protective and antioxidant activity was determined by the degree of inhibition of H2O2-induced hemolysis. For this purpose, 30 min after the erythrocyte suspension was added to the solutions of the test compounds, hemolysis was initiated with a solution of hydrogen peroxide (0.006%). Then, the reaction mixture was incubated in a thermostatic shaker Biosan ES-20 with slow stirring at 37 °C for 5 h. An aliquot was taken from the incubation medium every hour, centrifuged for 5 min (1600× g), and the degree of hemolysis was determined by the hemoglobin content in the supernatant on a ThermoSpectromic Genesys 20 spectrophotometer (Thermo Fisher Scientific, Waltham, MA, USA) at 524 nm. The percentage of hemolysis was calculated in relation to the complete hemolysis of the sample. Each experiment was designed with 4–8 replicates. Statistical data processing and charting were performed using the Microsoft Office Excel 2007 software package (Microsoft, Redmond, WA, USA). The data represent the mean ± SE.
Figure 4 Effect of unsymmetrical disulfides and Trolox (T) at a concentration of 1 μM on the level of H2O2-induced hemolysis of erythrocytes after 1–5 h of incubation.

[6] = Cytotoxicity, MTT on EBL cells; details: bovine, EBL cells (embryonic bovine lung)
Protocol: (§3) Cytotoxicity of compounds was determined using the microtetrazolium test (MTT) on EBL cells. The cells were cultured in DMEM—Dulbecco’s Modified Eagle’s Medium (Sigma Aldrich, St. Louis, MO, USA) supplemented with 10% FBS, 2 mM L-glutamine, 100 µg/mL penicillin and 100 µg/mL streptomycin. Cells were seeded in 96-well plates with the density of 3000 cells per well and left overnight to allow for the attachment. Cells were next cultured at 37 °C and 5% CO2 in the presence of compounds of interest at various concentrations from 1.25 to 160 µg/mL. After 24 h of cultivation the cells were subjected to MTT-assay. The formazan was solubilized by DMSO and the optical density was measured on Tecan Infinite 200Pro at 570 nm. The concentration required to inhibit cellular dehydrogenase activity by 50% (CC50 value) was calculated by using GraphPad Prism 6.0 software (GraphPad software, San Diego, CA, USA).

[7] = tested on: red blood cells from laboratory mice; experiment: Erythrotoxicity (hemolytic activity); type: cell-based; details: 100 μM, 1, 3 and 5 h of incubation
Protocol: No significant hemolytic activity was detected at a concentration of 1 μM (Figure 3B).
as §2
Figure 3 Hemolytic activity of unsymmetrical disulfides at the concentration of 100 μM (A) and 1 μM (B) after 1, 3 and 5 h of incubation.

[8] = tested on: EBL cells (embryonic bovine lung); experiment: Cytotoxicity, MTT on EBL cells
Protocol: as §3

| SMILES | MIC ([1]; 24 h, Mueller-Hinton broth) [µg/mL] | MIC [2] [µg/mL] | MIC (P. aeruginosa ATCC 27853) [µg/mL] | IC50 [3] [µM] | CC50 (in vitro) [µM] | antifungal activity against Candida albicans 703, in words [4] | MIC [4] [µg/mL] | membrane-protective activity, in words [5] | CC50 at 24 h [6] [µg/mL] | MIC S. aureus ATCC 29213 (MSSA) ([1]; 24 h, Mueller-Hinton broth) [µg/mL] | melting point | hemolytic activity (erythrotoxicity), in words [7] | cytotoxicity on EBL cells, in words [8] | antibacterial activity against MSSA, in words [1] | antibacterial activity against MRSA, in words [2] | activity against P. aeruginosa ATCC 27853, in words (P. aeruginosa ATCC 27853) |
| --- | --- | --- | --- | --- | --- | --- | --- | --- | --- | --- | --- | --- | --- | --- | --- | --- |
| NCC[C@H](O)C(=O)N[C@@H]1C[C@H](N)[C@@H](O[C@H]2O[C@H](CN)[C@@H](O)[C@H](O)[C@H]2O)[C@H](O)[C@H]1O[C@H]1O[C@H](CO)[C@@H](O)[C@H](N)[C@H]1O [Amikacin, reference compound] | 4 (≈ 6.83 µM) | 4 (≈ 6.83 µM) | 4 (≈ 6.83 µM) |  |  |  |  |  |  |  |  |  |  |  |  |  |
| CC1(C)[C@H]2C[C@H](O)[C@@H](CSSc3ncccc3C(=O)O)[C@@H]1C2 [Compound 4d, 2-((((1S,2S,3S,5R)-3-hydroxy-6,6-dimethylbicyclo[3.1.1]heptan-2-yl)methyl)disulfanyl)nicotinic acid] | 512 (≈ 1510 µM) | 64 (≈ 189 µM) | 1020 (≈ 3020 µM) | > 97 | 178 ± 11 | active against yeast | 16 (≈ 47.1 µM) | most active | 11.1 (≈ 32.8 µM) |  |  |  |  |  |  |  |
| OC(Cn1cncn1)(Cn1cncn1)c1ccc(F)cc1F [Fluconazole, reference compound] |  |  |  |  |  |  | 16 (≈ 52.2 µM) |  |  |  |  |  |  |  |  |  |
| CC1(C)[C@H]2CC[C@@H](CSSc3ncccc3C(=O)O)[C@@H]1C2 [Compound 2d, 2-((((1S,2R,5S)-6,6-dimethylbicyclo[3.1.1]heptan-2-yl)methyl)disulfanyl)nicotinic acid] | 16 (≈ 49.5 µM) | 512 (≈ 1580 µM) | 1020 (≈ 3170 µM) | 5 ± 1 | 60 ± 4 |  | 128 (≈ 396 µM) |  | 18.1 (≈ 56 µM) | 32 (≈ 98.9 µM) |  |  |  |  |  |  |
| Cc1cc(C)nc(SSC[C@@H]2[C@@H](O)C[C@H]3C[C@@H]2C3(C)C)n1 [Compound 4b, (1S,2S,3S,5R)-2-(((4,6-dimethylpyrimidin-2-yl)disulfanyl)methyl)-6,6-dimethylbicyclo[3.1.1]heptan-3-ol] | > 1020 | > 1020 | > 1020 | 12 ± 3 | 34 ± 2 |  | > 1020 | most active |  |  |  |  |  |  |  |  |
| COC(=O)c1cccnc1SS[C@H]1C[C@H](C)CC[C@H]1C(C)C [Compound 1c, Methyl 2-(((1S,2S,5R)-2-isopropyl-5-methylcyclohexyl)disulfanyl)pyridine-3-carboxylate] | 32 (≈ 94.2 µM) | 32 (≈ 94.2 µM) | 32 (≈ 94.2 µM) | 12 ± 2 | 31 ± 2 |  | 512 (≈ 1510 µM) |  | 18.3 (≈ 53.9 µM) |  | 96 °C |  |  |  |  |  |
| CC1(C)[C@H]2C[C@H](O)[C@@H](CSSc3nc4ccccc4s3)[C@@H]1C2 [Compound 4a, (1S,2S,3S,5R)-2-((benzo[d]thiazol-2-yldisulfanyl)methyl)-6,6-dimethylbicyclo[3.1.1]heptan-3-ol] | 256 (≈ 728 µM) | > 1020 | 1020 (≈ 2910 µM) | > 31 | 68 ± 6 |  | > 1020 | most active |  |  |  |  |  |  |  |  |
| CC(C)[C@@H]1CC[C@@H](C)C[C@@H]1SSc1ncccc1C(=O)O [Compound 1d, 2-(((1S,2S,5R)-2-isopropyl-5-methylcyclohexyl)disulfanyl)nicotinic acid] | 32 (≈ 98.3 µM) | 64 (≈ 197 µM) | 1020 (≈ 3150 µM) | > 34 | 38 ± 3 |  | 64 (≈ 197 µM) |  | 47.8 (≈ 147 µM) |  | 160 to 161 °C (dec.) |  |  |  |  |  |
| CC1(C)[C@H]2C[C@H](SSc3ncccc3C(=O)O)[C@@H](CO)[C@@H]1C2 [Compound 3d, 2-(((1S,2R,3S,5R)-2-(hydroxymethyl)-6,6-dimethylbicyclo[3.1.1]heptan-3-yl)disulfanyl)nicotinic acid] | 512 (≈ 1510 µM) | 1020 (≈ 3020 µM) | 1020 (≈ 3020 µM) | 132 ± 16 | 285 ± 14 | active against yeast | 32 (≈ 94.3 µM) |  | 118 (≈ 347 µM) |  | 99 °C | Low hemolytic activity | least toxicity |  |  |  |
| COC(=O)c1cccnc1SSC[C@@H]1CC[C@H]2C[C@@H]1C2(C)C [Compound 2c, Methyl 2-((((1S,2R,5S)-6,6-dimethylbicyclo[3.1.1]heptan-2-yl)methyl)disulfaneyl)pyridine-3-carboxylate] | > 1020 | 64 (≈ 190 µM) | 1020 (≈ 3030 µM) | 19 ± 3 | 104 ± 8 |  | 1020 (≈ 3030 µM) | most active | 123 (≈ 363 µM) |  |  |  | least toxicity | inactive | showing activity |  |
| Cc1cc(C)nc(SS[C@H]2C[C@H]3C[C@@H]([C@@H]2CO)C3(C)C)n1 [Compound 3b, ((1S,2R,3S,5R)-3-((4,6-dimethylpyrimidin-2-yl)disulfanyl)-6,6-dimethylbicyclo[3.1.1]heptan-2-yl)methanol] | 32 (≈ 98.6 µM) | 32 (≈ 98.6 µM) | 1020 (≈ 3160 µM) | 16 ± 3 | 83 ± 4 |  | 512 (≈ 1580 µM) | most active | 8.2 (≈ 25.3 µM) |  |  |  |  |  |  |  |
| CC1(C)[C@H]2CC[C@@H](CSSc3nc4ccccc4s3)[C@@H]1C2 [Compound 2a, 2-((((1S,2R,5S)-6,6-dimethylbicyclo [3.1.1]heptan-2-yl)methyl)disulfaneyl)benzo[d]thiazole] | 128 (≈ 381 µM) | 128 (≈ 381 µM) | 64 (≈ 191 µM) | 13 ± 3 | 99 ± 5 |  | 1020 (≈ 3050 µM) | most active | 104 (≈ 311 µM) |  |  | Low hemolytic activity | least toxicity |  |  | repressed the growth |
| Cc1cc(C)nc(SSC[C@@H]2CC[C@H]3C[C@@H]2C3(C)C)n1 [Compound 2b, 2-((((1S,2R,5S)-6,6-dimethylbicyclo[3.1.1]heptan-2-yl)methyl)disulfanyl)-4,6-dimethylpyrimidine] | 16 (≈ 51.9 µM) | 64 (≈ 207 µM) | 32 (≈ 104 µM) | 13 ± 2 | 35 ± 3 |  | > 1020 | most active | 13.6 (≈ 44.1 µM) |  |  |  |  |  |  | repressed the growth |
| CC(N)C12CC3CC(CC(C3)C1)C2 (stereo not drawn) [Rimantadine, reference compound] |  |  |  | 57 ± 8 | 367 ± 28 |  |  |  |  |  |  |  |  |  |  |  |
| CC1(C)[C@H]2C[C@H](SSc3nc4ccccc4s3)[C@@H](CO)[C@@H]1C2 [Compound 3a, ((1S,2R,3S,5R)-3-(benzo[d]thiazol-2-yldisulfanyl)-6,6-dimethylbicyclo[3.1.1]heptan-2-yl)methanol] | 32 (≈ 91 µM) | 32 (≈ 91 µM) | 64 (≈ 182 µM) | 9 ± 3 | 30 ± 3 |  | 1020 (≈ 2910 µM) |  | 7.1 (≈ 20.2 µM) |  |  |  |  |  |  | repressed the growth |
